Source: a melting point compilation (Tetko et al.; mined from patent text by program, amines drawn as free bases though some values may be those of a salt)

Structure (SMILES)	melting point [°C]
O=C(CN1C(=O)C2(COc3cc4c(cc32)OCCO4)c2ccccc21)Nc1ccccc1F (stereo unspecified)	117 to 119
CS(=O)(=O)c1c(C(=O)O)ccc(Cl)c1F	208 to 209
O=C(OCc1ccccc1)c1ccc2[nH]ccc2c1	127 to 129
O=C(CCCN1CCN(c2ccccn2)CC1)c1cccnc1	89
Cc1c(CCCC=CC(=O)O)cccc1Cc1ccc(Cl)cc1	115
CCc1cc(OCc2ccc(-c3ccccc3C#N)cc2)c2ccccc2n1	151 to 153
O=[N+]([O-])c1ccc(OCCc2ccc(CCl)cn2)cc1	77 to 78
COc1cccc(-c2c(Cl)c(CN3CCCCC3)nc3sc4c(c23)CCN(Cc2ccccc2)C4)c1OC	173 to 174
CC(C)C[C@H](NC(=O)[C@@H](N)Cc1c[nH]cn1)[C@@H](O)c1nccs1	118 to 126
COC[C@@H]1CCCN1S(=O)(=O)c1ccc(Cl)c(COc2cccc3c(-n4cccn4)cc(C)nc23)c1Cl	75
COC1=C(OC)C(=O)c2c(cccc2S(=O)c2ccccc2)C1=O (stereo unspecified)	165 to 167
COc1ccc2c(c1)C(=O)c1c-2n(CCCBr)c(=O)c2cc([N+](=O)[O-])ccc12	282 to 284
O=c1n(CCCN2CCC(c3c[nH]c4ccccc34)CC2)nc2ccccn12	112
O=c1cc(NCCN2CCN(c3cccc4c3OCCO4)CC2)cn[nH]1	244 to 246
Cc1cccc(N2CCN(CCc3c(C)nc4cc(C)ccn4c3=O)CC2)c1	96 to 97
O=C(NCCCO)c1ccc[nH]1	71 to 73
COC(=O)c1ccc2c(c1)S(=O)(=O)c1ccccc1NC2=O	300 to 302
CCOC(=O)c1nnn(-c2ccc(C3=NNC(=O)NC3C)cc2)c1C(=O)OCC (stereo unspecified)	156 to 158
COC(=O)c1ccc(Cc2cccc3ccc(C(=O)O)cc23)c(OC)c1	229 to 230
COc1cc2c(cc1O)CCN(C(=O)c1cc(OC)c(OC)c(OC)c1)C2=O	175 to 176
COC(=O)c1c(C)sc(C)c1N	75 to 77

Structure (SMILES)	melting point [°C]
CCOC(=O)Oc1cccc(OC)c1Cl	75 to 76
COC1=C(OC)C(=O)C(CCCCCCCCCC(=O)N[C@H](Cc2ccccc2)C(=O)O)=C(C)C1=O	96 to 98
O=C1CCC2CCCC(CCC(=O)OCc3ccccc3)C2N1 (stereo unspecified)	101 to 102
Brc1ccccc1C1=NOC2(N3CCCC3)CCCCC12 (stereo unspecified)	134
C#CCOC(=O)c1cc(-n2c(=O)c3c(n(C)c2=O)CCC3)c(F)cc1Cl	193 to 195
C=Cc1ccc2c(c1)CCN2C(=O)OC(C)(C)C	85.5 to 88.6
O=C(Cc1ccccc1)NC1CN(C(C(=O)O)c2ccc(O)cc2)C1=O (stereo unspecified)	134 to 141
O=C1C[C@@H](COS(=O)(=O)c2ccccc2)N1	102 to 105
CC(Nc1nc(Cl)nc2c1cnn2-c1ccccc1)C(O)c1ccccc1 (stereo unspecified)	164 to 165
CSc1sc(C=O)cc1C=O	135 to 137
CC(C)(C)[Si](C)(C)Oc1ccc2c(c1)C(=O)c1ccc(O[Si](C)(C)C(C)(C)C)cc1C2=O	131 to 133
CCOC(=O)COc1cccc2c1OCCC2=O	56 to 66
CC(Nc1ccc(Cl)c(Cl)c1)C(=O)NCC#N (stereo unspecified)	134 to 135
CCn1c(CO)nc(C(C)C)c1Sc1cccc(Cl)c1	99 to 100
Cc1nc(N)oc1-c1cccc2ccccc12	187 to 189
COC(=O)c1ccc(S(C)(=O)=O)nc1OC	88 to 90
CCCC[C@H](NC(=O)[C@H](CC(C)C)NC(=O)c1ccc(OC)cc1)C(=O)CSCc1ccco1	124
O=C(O)CCCCCCCNS(=O)(=O)c1ccc([N+](=O)[O-])cc1	126 to 127
COc1nc(C(F)(F)F)cc(=O)n1-c1cc(O)c(Br)cc1F	132 to 136
CCc1nn(Cc2ccccn2)c2c(=O)[nH]c(-c3cc(S(C)(=O)=O)ccc3OCC(C)C)nc12	223 to 225
